Test results as given in the supplement of paper PMC5579334.

What was measured:
YST-1 [1] = assay: % inhibition of CellTiter-Glo viability at highest tested concentration (72 h), relative to DMSO and benzethonium chloride controls; higher = more inhibition
Method in brief: (§1)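 For this screen, 384-well plates were preprinted with each compound at five concentrations in 10-fold steps and seeded with MPNST cell lines or primary human Schwann cells at 750–1000 cells per well. Incubation lasted 72 h at 37 °C, 5% CO2, and CellTiter-Glo ATP luminescence, scaled between vehicle and positive-control wells and averaged over duplicates where available, served as viability. Logistic fits with four parameters were applied. Relative IC50 (censored at the top concentration) and drug sensitivity score derive from these fits, and percent inhibition is at the top concentration.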

HS-Sch-2 [2] = assay: as above
Method in brief: as §1

HS-PSS [3] = assay: as above
Method in brief: as §1

HS-PSS [4] = assay: drug sensitivity score (DSS, CellTox-Green cytotoxicity, 72 h) (DSS (dimensionless)); higher = more cytotoxic; extreme values may be limits of the assay
Method in brief: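 MPNST cell lines and primary human Schwann cells were grown for 72 h at 37 °C in 384-well plates containing five 10-fold compound dilutions. CellTox-Green, added before seeding at a final 1:1000 dilution, gave fluorescence from DNA released by disrupted cells, and signals were scaled to vehicle and positive-control wells. Curves were fitted with a four-parameter logistic model. Drug sensitivity score and relative IC50 come from these fits, with IC50 censored at the top concentration.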

YST-1 [5] = assay: drug sensitivity score (DSS, CellTiter-Glo viability, 72 h) (DSS (dimensionless)); higher = more sensitive; extreme values may be limits of the assay
Method in brief: as §1

HS-Sch-2 [6] = assay: as above
Method in brief: as §1

HS-PSS [7] = assay: as above
Method in brief: as §1

SMILES	% inhibition (YST-1 [1])	% inhibition (HS-Sch-2 [2])	% inhibition (HS-PSS [3])	drug sensitivity score (HS-PSS [4])	drug sensitivity score (YST-1 [5])	drug sensitivity score (HS-Sch-2 [6])	drug sensitivity score (HS-PSS [7])
Nc1nc2[nH]cc(CCc3ccc(C(=O)N[C@@H](CCC(=O)O)C(=O)O)cc3)c2c(=O)[nH]1 [Pemetrexed] (max concentration tested 10000 nM)	19.7%	62.5%	6.45%	0	4.42	17.1	0
Cc1ccc(C(=O)Nc2ccc(Oc3cc4cnn(C)c4cc3-c3cn[nH]c3)c(F)c2)c(=O)n1-c1ccc(F)cc1 [Merestinib] (max concentration tested 1000 nM)	25.2%	31%	46.7%	0	1.74	1.13	3.07
Nc1ncnc2c1c(-c1cccc(OCc3ccccc3)c1)cn2[C@H]1C[C@@H](CN2CCC2)C1 [NVP-AEW541] (max concentration tested 10000 nM)	98.3%	99.8%	100%	7.08	13	8.08	5.83
Cc1ccccc1C(C(=O)NC1CCCCC1)N(C(=O)Cn1ccnc1C)c1cccc(F)c1 (stereo not drawn) [AGI-5198] (max concentration tested 10000 nM)	1.43%	4.74%	11.5%	0	0	0.6	0.2
CCCNC(=O)Nc1ccc(Oc2ncnc3cc(OC)c(OC)cc23)cc1Cl [KRN-633] (max concentration tested 2500 nM)	7.23%	-7.09%	10.5%	0	0	0	0
COc1ccc(CCc2nc3cc(-c4c(C)noc4C)ccc3n2C[C@H](C)N2CCOCC2)cc1Cl [SGC-CBP30] (max concentration tested 25000 nM)	62%	60.7%	40.4%	0	5.72	5.7	1.59
Cn1ncc(Cl)c1-c1cc(C(=O)N[C@H](CN)Cc2cccc(F)c2)sc1Cl [Afuresertib] (max concentration tested 1000 nM)	32%	1.85%	13.3%	0	1.39	0	0.07
CC(=O)O[C@]1(C(C)=O)CC[C@H]2[C@@H]3C=C(C)C4=CC(=O)CC[C@]4(C)[C@H]3CC[C@@]21C [Megestrol acetate] (max concentration tested 10000 nM)	6.88%	2.53%	-2.66%	0	0	0	0
COC(=O)c1ccc2c(c1)[nH]c1ncnc(NCCCN3CCCCC3)c12 [UM729] (max concentration tested 10000 nM)	35.4%	29%	13.2%	0	3.85	1.25	0.05
N#CC(c1ccnc(OCc2ccc(CN3CCOCC3)cc2)n1)c1nc2ccccc2s1 (stereo not drawn) [Bentamapimod] (max concentration tested 10000 nM)	26.9%	58.6%	75.6%	1.1	2.11	3.69	6.75
C[C@H]1C=C2C(=O)O[C@H]3CC[C@@H](C1)[C@@]23O [Galiellalactone] (max concentration tested 25000 nM)	64.8%	93.5%	58.6%	0	2.78	7.88	3.82
CCN(CC)CCN(Cc1ccc(-c2ccc(C(F)(F)F)cc2)cc1)C(=O)Cn1c(SCc2ccc(F)cc2)nc(=O)c2c1CCC2 [Darapladib] (max concentration tested 1000 nM)	19.5%	33%	53.3%	3.71	1.09	2.38	3.85
CC(C)[C@H]1C(=O)N[C@@H](CCCNC(=N)N)C(=O)NCC(=O)N[C@@H](CC(=O)O)C(=O)N[C@H](Cc2ccccc2)C(=O)N1C [Cilengitide] (max concentration tested 10000 nM)	-3.66%	27%	1.31%	0	0	1.06	0
CN(C)c1cc2c(cc1Sc1nc3c(N)nccc3n1CCNCC(C)(C)C)OCO2 [CUDC-305] (max concentration tested 10000 nM)	81.7%	101%	84.7%	4.43	12.6	19.6	13.1
CC(C)NC(=O)COc1cccc(-c2nc(Nc3ccc4[nH]ncc4c3)c3ccccc3n2)c1 [SLx-2119] (max concentration tested 5000 nM)	83.7%	29.4%	48.7%	0	13.6	2.63	3.67
C[C@@H](Oc1cc(-n2cnc3ccc(CN4CCN(C)CC4)cc32)sc1C(N)=O)c1ccccc1C(F)(F)F (max concentration tested 10000 nM)	86.8%	99.8%	101%	5.06	27.3	34.6	14.6
CC[C@H](C)C(=O)O[C@H]1C[C@H](O)C=C2C=C[C@H](C)[C@H](CC[C@@H](O)C[C@@H](O)CC(=O)O)[C@H]21 [Pravastatin] (max concentration tested 10000 nM)	0.31%	-3.68%	24.1%	0	0	0	1.44
Cc1ncc(Cl)cc1NCc1ccc(C(=O)N[C@@H](CC2CCCC2)C(=O)NC2CC2)s1 (max concentration tested 5000 nM)	45.9%	12.8%	10.8%	0	8.01	0.17	0
O=C(NOCC1CC1)c1ccc(F)c(F)c1Nc1ccc(I)cc1Cl (max concentration tested 10000 nM)	24.6%	55.9%	21.5%	0	1.6	5.05	0.51
CN(C)C(=O)c1cc2cnc(Nc3ccc(N4CCNCC4)cn3)nc2n1C1CCCC1 [Ribociclib] (max concentration tested 10000 nM)	67%	25.4%	28.2%	0	6.07	1.85	1.83
C=CC(=O)Nc1cccc(Nc2nc(Nc3ccc(OCCOC)cc3)ncc2F)c1 [Spebrutinib] (max concentration tested 1000 nM)	15.3%	12.6%	20.7%	0	0.89	0.45	0.48
O=C(Nc1ccc(OC(F)(F)F)cc1)c1sccc1NCc1ccnc2ccccc12 [OSI-930] (max concentration tested 2500 nM)	1.07%	17.9%	23.2%	0	0	0.3	2.5
C[C@H](Nc1ncnc2nc[nH]c12)c1cc2cccc(Cl)c2c(=O)n1-c1ccccc1 [Duvelisib] (max concentration tested 500 nM)	19.5%	13.6%	-0.01%	0.21	0.82	0.22	0
CCc1cc2c(cc1N1CCC(N3CCOCC3)CC1)C(C)(C)c1[nH]c3cc(C#N)ccc3c1C2=O [Alectinib] (max concentration tested 1000 nM)	17.5%	2.24%	42.8%	0	0.28	0	7.01
C[C@@H]1C[C@H]2O[C@@H]2/C=C\C=C\C(=O)Cc2c(Cl)c(O)cc(O)c2C(=O)O1 [Radicicol] (max concentration tested 10000 nM)	94%	99.8%	86.2%	4.33	12.1	16.3	12.9
CC[C@H](NC(=O)[C@H](C)NC)C(=O)N1C[C@@H](O)C[C@H]1Cc1c(-c2[nH]c3cc(F)ccc3c2C[C@@H]2C[C@H](O)CN2C(=O)[C@H](CC)NC(=O)[C@H](C)NC)[nH]c2cc(F)ccc12 [Birinapant] (max concentration tested 1000 nM)	2.35%	6.12%	10.7%	0	0	0	0
Cn1cc(-c2cnn3c(N)c(Br)c([C@@H]4CCCNC4)nc23)cn1 [MK-8776] (max concentration tested 2500 nM)	29.6%	72%	7.73%	0	2.03	7.06	0
c1ccc(Cn2c(-c3ccc(OC[C@H](C4CCNCC4)n4c(-c5ccccc5)nc5ccccc54)cc3)nc3ccccc32)cc1 [deltarasin] (max concentration tested 10000 nM)	100%	101%	101%	5.68	5.29	5.77	6.88
COCC1(CO)C(=O)C2CCN1CC2 (stereo not drawn) [APR-246] (max concentration tested 10000 nM)	-11%	5%	13.1%	0	0	0	0.39
